pEC50: −log10 of the molar value. Where “and” joins values, the source holds several entries; their conditions need not be identical. Equal entries are not always repeated.
Assays:
[1] = molecular target: T1, human GPR119 (Homo sapiens, UniProt Q8TDV5); assay: β-Arrestin PathHunter assay (U2OS hGPR119 β-arrestin cells); assay type: cell-based; details: for pEC50: U2OS hGPR119 β-arrestin cells, 90 min, each line a separate determination, read-out: Human B-arrestin Functional EC50; for Intrinsic Activity (Human B-arrestin): percent of maximal activity relative to standard GPR119 agonist at 10 micromolar
T1 sequence (Q8TDV5 1-335): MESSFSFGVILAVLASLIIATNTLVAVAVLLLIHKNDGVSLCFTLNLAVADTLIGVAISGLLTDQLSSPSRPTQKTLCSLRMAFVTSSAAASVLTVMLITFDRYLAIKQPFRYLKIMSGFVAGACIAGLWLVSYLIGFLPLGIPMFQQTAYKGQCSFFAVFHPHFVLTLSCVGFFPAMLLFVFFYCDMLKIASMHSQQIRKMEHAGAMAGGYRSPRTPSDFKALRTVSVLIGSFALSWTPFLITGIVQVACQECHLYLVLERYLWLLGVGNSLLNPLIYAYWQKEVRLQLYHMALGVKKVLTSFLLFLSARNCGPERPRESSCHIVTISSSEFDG
Procedure, shortened: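 Cells carry ProLink-tagged GPR119 and EA-fused β-arrestin; 5000 cells/well were plated overnight in Opti-MEM with 2% charcoal-dextran serum. Compounds were applied for 90 min at 37 °C in HBSS/20 mM HEPES pH 7.0/0.1% BSA (0.5% DMSO), followed by Galacton Star substrate for 60 min at RT and a luminescence read. EC50 came from a 4-parameter logistic fit.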

[2] = molecular target: T1, human GPR119; assay: cAMP HTRF functional assay (hGPR119 HEK-CRE beta-lactamase cells); assay type: cell-based; design: host or cells: HEK293-CRE beta-lactamase; details: for pEC50: HTRF cAMP, 30 min, 400 microM IBMX, each line a separate determination; for Intrinsic Activity (Human cAMP): percent of maximal activity relative to standard GPR119 agonist at 10 micromolar
Procedure, shortened: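 hGPR119 HEK-CRE cells (5000/well), cultured overnight, then treated 30 min at room temperature with compound plus 400 microM IBMX (0.58% DMSO). cAMP measured by competitive HTRF immunoassay after 60 min lysis/detection, converted to nM via standard curve; EC50 from 4-parameter logistic fit.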

Row | SMILES | pEC50 [1] | Intrinsic Activity (Human B-arrestin) [1] | pEC50 [2] | Intrinsic Activity (Human cAMP) [2]
1 | CC(C)OC(=O)N1CCC(Oc2cc(N3CCc4cc(S(C)(=O)=O)ccc43)ncn2)CC1 [Example 3, Isopropyl 4-({6-[5-(methylsulfonyl)-2,3-dihydro-1H-indol-1-yl]pyrimidin-4-yl}oxy)piperidine-1-carboxylate] | 7.66 and 7.83 and 7.14 | 75.8% and 62.2% and 87.9% | 7.54 and 6.90 and 6.65 and 6.70 and 7.31 and 6.82 and 7.20 and 6.69 and 6.98 | 107%
2 | Cc1c(O[C@H]2CCN(C(=O)OC3(C)CC3)C[C@H]2F)ncnc1N1CCc2ncccc21 [Example 17, 1-Methylcyclopropyl (3R,4S)-4-{[6-(2,3-dihydro-1H-pyrrolo[3,2-b]pyridin-1-yl)-5-methylpyrimidin-4-yl]oxy}-3-fluoropiperidine-1-carboxylate] | 8.67 and 8.23 and 8.18 and 8.30 and 8.33 | 68.9% and 54.3% and 59.2% and 52.8% and 76.9% | 7.72 and 7.55 and 7.86 and 7.83 and 7.77 and 7.71 | 69.6% and 48.7% and 53.8% and 63.9% and 53.1% and 48.5%
3 | Cc1c(O[C@@H]2[C@@H]3COC[C@H]2CN(C(=O)OC(C)C)C3)ncnc1N1CCc2ncccc21 [Example 29, Isopropyl (9-syn)-9-{[6-(2,3-dihydro-1H-pyrrolo[3,2-b]pyridin-1-yl)-5-methylpyrimidin-4-yl]oxy}-3-oxa-7-azabicyclo[3.3.1]nonane-7-carboxylate] | < 5.00 | – | < 5.00 | –

— patent US20100285145A1, “GPR 119 MODULATORS” (PFIZER INC, priority 2009, published 2010)
